Values after ≈ are worked out from the molar mass of the structure shown. Like-named read-outs stand apart in the source and are kept apart here. A value given as a limit tells only on which side of the number the result lay.

Usually IC50 stands for the concentration needed to halve the response being measured. A lower IC50 goes with inhibition by little substance.

Assay [1] concerns Collectotrichum graminicola (Cg). Kind of assay: Growth inhibition assay of fungal pathogens. The class given is cell-based. Conditions: 48 h, read-out: Concentration at 90% Inhibition Cg. In a few lines: (§1)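 Read-out was OD600 with visual scoring at 48 h, expressed as percent inhibition relative to wells containing 2% DMSO alone. Test wells held spores in 17% V8 liquid medium, with compound at final levels of either 50, 10, 2 ppm or 2, 0.4, 0.08 ppm.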

The subject of assay [2] is Fusarium virguliforme (Fv). Kind of assay: Growth inhibition assay of fungal pathogens. The note with it: 48 h, read-out: Concentration at 90% Inhibition Fv. The class given is cell-based. In a few lines: as §1
For assay [3], the system named is Phytophthora capsici (Pc). The assay can be described thus: Growth inhibition assay of fungal pathogens. The format is cell-based. Conditions: 48 h, read-out: Concentration at 90% Inhibition Pc. In a few lines:
as §1

The next assay has as its system Diplodia maydis (Dm). Kind of assay: Growth inhibition assay of fungal pathogens. The class given is cell-based. Conditions: Stenocarpella maydis, 48 h, read-out: Concentration at 90% Inhibition Dm. In a few lines: as §1
The subject of the next assay is Rhizoctonia solani (Rs). Kind of assay: Growth inhibition assay of fungal pathogens. The format is cell-based. Conditions: 48 h, read-out: Concentration at 90% Inhibition Rs. In outline:
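Spores, or mycelial plugs for Rhizoctonia, in 17% V8 medium (¼ PDB for plugs) were exposed to compound at final 50, 10 and 2 ppm or 2, 0.4 and 0.08 ppm, with 2% DMSO. Growth was read by OD600 with blank subtraction plus visual rating; percent inhibition at 48 h is relative to 2% DMSO control.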

Another assay has as its system Septoria tritici (St). Kind of assay: Growth inhibition assay of fungal pathogens. The format is cell-based. The note with it: Zymoseptoria tritici, 48 h, read-out: Concentration at 90% Inhibition St. In a few lines:
as §1

The subject of assay [4] is Fusarium moniliforme (Fm). Kind of assay: Growth inhibition assay of fungal pathogens. The class given is cell-based. The note with it: Fusarium verticillioides, 48 h, read-out: Concentration at 90% Inhibition Fm. In a few lines:
as §1

The target of a further assay is hACC2 (Homo sapiens, UniProt O00763). The assay can be described thus: In vitro ACC2 inhibition assay (ADP-Glo), human ACC2. The format is biochemical. In a few lines: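 ADP-Glo luminescent ADP detection with 5 nM ACC2, 20 μM ATP, 20 μM acetyl-CoA, 12 mM NaHCO3, 2 mM DTT, 5% DMSO; compound (30 μM-0.00051 μM, 11 points) preincubated 15 min, reaction 60 min at room temperature. Percent inhibition against DMSO and positive controls; IC50 by four-parameter nonlinear fit.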
Background: ADP-Glo turns the ADP formed in a reaction into a luminescent signal.

hACC2, sequence (O00763 whole entry): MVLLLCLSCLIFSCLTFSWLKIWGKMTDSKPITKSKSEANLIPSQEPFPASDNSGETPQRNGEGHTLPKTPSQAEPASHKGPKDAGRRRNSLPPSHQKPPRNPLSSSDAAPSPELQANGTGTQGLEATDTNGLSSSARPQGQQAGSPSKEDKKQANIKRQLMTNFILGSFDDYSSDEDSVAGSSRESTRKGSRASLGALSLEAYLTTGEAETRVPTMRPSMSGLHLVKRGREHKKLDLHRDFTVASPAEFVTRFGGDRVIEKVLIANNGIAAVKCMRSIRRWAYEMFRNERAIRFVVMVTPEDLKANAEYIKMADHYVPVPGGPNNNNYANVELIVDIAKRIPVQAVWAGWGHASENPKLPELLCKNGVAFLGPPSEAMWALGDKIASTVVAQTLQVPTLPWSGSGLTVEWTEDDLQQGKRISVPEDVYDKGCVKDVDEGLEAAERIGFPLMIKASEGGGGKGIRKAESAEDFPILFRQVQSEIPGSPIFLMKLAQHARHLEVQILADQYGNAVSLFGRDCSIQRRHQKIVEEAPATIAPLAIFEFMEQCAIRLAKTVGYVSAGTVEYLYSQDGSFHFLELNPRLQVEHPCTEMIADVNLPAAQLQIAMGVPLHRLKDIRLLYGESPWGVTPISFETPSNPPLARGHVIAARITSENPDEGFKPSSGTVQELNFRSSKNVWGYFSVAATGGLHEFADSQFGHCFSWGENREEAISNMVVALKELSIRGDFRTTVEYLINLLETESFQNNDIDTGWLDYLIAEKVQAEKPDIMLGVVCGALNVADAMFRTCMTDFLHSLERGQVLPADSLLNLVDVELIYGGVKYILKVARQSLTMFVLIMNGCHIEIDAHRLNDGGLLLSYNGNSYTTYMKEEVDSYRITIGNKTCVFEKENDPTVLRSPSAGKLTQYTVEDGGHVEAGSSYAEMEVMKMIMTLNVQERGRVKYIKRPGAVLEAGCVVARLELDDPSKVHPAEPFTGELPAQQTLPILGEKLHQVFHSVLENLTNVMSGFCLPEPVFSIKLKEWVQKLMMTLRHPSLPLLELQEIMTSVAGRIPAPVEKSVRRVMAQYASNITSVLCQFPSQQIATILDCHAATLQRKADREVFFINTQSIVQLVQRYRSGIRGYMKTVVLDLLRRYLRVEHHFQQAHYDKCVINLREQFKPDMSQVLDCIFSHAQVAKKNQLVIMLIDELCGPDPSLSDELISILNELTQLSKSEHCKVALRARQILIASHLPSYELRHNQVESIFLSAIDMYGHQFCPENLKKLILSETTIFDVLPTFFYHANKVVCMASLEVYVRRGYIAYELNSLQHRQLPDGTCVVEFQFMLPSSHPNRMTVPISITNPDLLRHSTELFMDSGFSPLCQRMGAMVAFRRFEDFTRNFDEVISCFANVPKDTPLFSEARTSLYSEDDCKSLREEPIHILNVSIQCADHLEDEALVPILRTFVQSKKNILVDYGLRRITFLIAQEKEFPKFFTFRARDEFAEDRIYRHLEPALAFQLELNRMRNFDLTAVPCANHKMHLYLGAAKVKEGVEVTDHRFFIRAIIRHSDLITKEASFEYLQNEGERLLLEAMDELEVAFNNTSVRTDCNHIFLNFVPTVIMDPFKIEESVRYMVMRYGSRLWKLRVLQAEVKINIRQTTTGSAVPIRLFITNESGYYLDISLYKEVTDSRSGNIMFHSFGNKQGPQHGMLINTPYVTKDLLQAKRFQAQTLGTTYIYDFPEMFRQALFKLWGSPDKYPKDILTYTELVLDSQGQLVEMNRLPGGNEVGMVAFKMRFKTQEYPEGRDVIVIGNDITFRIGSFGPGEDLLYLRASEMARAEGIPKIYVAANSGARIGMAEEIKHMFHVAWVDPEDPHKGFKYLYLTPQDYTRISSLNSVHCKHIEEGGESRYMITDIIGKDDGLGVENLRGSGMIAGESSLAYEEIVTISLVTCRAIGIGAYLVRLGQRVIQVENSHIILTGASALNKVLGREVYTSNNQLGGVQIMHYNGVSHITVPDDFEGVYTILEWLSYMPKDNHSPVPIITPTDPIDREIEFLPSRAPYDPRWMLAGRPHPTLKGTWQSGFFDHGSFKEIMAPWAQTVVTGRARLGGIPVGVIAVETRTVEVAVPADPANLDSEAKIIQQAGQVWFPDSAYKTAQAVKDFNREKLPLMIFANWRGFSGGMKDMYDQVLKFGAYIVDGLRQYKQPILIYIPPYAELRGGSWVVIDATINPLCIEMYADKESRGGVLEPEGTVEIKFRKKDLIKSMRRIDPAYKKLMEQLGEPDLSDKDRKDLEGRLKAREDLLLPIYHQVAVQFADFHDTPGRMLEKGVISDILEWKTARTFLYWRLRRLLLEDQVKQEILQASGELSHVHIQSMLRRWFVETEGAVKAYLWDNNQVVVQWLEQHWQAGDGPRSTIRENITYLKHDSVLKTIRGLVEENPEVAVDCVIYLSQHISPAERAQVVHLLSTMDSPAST

As for `CCOC(=O)c1sc2c(c1C)c(=O)n(C(C)(C)C(=O)N1CCOCC1)c(=O)n2C[C@H](OC(C)C)c1ccccc1OC` [Compound I-5, (R)-ethyl 1-(2-isopropoxy-2-(2-methoxyphenyl)ethyl)-5-methyl-3-(2-methyl-1-morpholino-1-oxopropan-2-yl)-2,4-dioxo-1,2,3,4-tetrahydrothieno[2,3-d]pyrimidine-6-carboxylate], the IC90 in assay [1] (Table 4a) is no less than 50 µg/mL; in assay [1] (Table 4b) it was 10 µg/mL (≈ 16.6 µM); in assay [2] (Table 4a), no less than 50 µg/mL; in assay [2] (Table 4b), 10 µg/mL (≈ 16.6 µM); in assay [3] (Table 4a), no less than 50 µg/mL; in assay [3] (Table 4b), no less than 50 µg/mL. Also, the IC90 with Diplodia maydis (Dm) (Table 4a) was 2 µg/mL (≈ 3.32 µM); in the assay with Diplodia maydis (Dm) (Table 4b), 2 µg/mL (≈ 3.32 µM); with Rhizoctonia solani (Rs) (Table 4a), no less than 50 µg/mL; with Rhizoctonia solani (Rs) (Table 4b), no less than 50 µg/mL; with Septoria tritici (St) (Table 4a), no less than 50 µg/mL; in the assay with Septoria tritici (St) (Table 4b), no less than 50 µg/mL. For the same compound, the IC90 in assay [4] (Table 4a) and in assay [4] (Table 4b) was 0.4 µg/mL (≈ 0.665 µM) each time. The IC50 on hACC2 (Table 2a) and against hACC2 (Table 2b (additional results)) was 10 to 40 nM throughout.
Turning to `CCOC(=O)c1sc2c(c1C)c(=O)n(C(C)(C)C(=O)N1CCCC1)c(=O)n2C[C@H](OC(C)C)c1ccccc1OC` [Compound I-7, (R)-ethyl 1-(2-isopropoxy-2-(2-methoxyphenyl)ethyl)-5-methyl-3-(2-methyl-1-oxo-1-(pyrrolidin-1-yl)propan-2-yl)-2,4-dioxo-1,2,3,4-tetrahydrothieno[2,3-d]pyrimidine-6-carboxylate], the IC90 is 0.4 µg/mL (≈ 0.683 µM) in assay [1] (Table 4a); 0.4 µg/mL (≈ 0.683 µM) in assay [1] (Table 4b); 0.4 µg/mL (≈ 0.683 µM) in assay [2] (Table 4a); 0.4 µg/mL (≈ 0.683 µM) in assay [2] (Table 4b); no less than 50 µg/mL in assay [3] (Table 4a); no less than 50 µg/mL in assay [3] (Table 4b). Also, the IC90 stood at 0.4 µg/mL (≈ 0.683 µM) with Diplodia maydis (Dm) (Table 4a); 0.4 µg/mL (≈ 0.683 µM) in the assay on Diplodia maydis (Dm) (Table 4b); 0.08 µg/mL (≈ 0.137 µM) in the assay with Rhizoctonia solani (Rs) (Table 4a); 0.08 µg/mL (≈ 0.137 µM) with Rhizoctonia solani (Rs) (Table 4b); 10 µg/mL (≈ 17.1 µM) in the assay with Septoria tritici (St) (Table 4a); 2 µg/mL (≈ 3.41 µM) with Septoria tritici (St) (Table 4b). The IC90 in assay [4] (Table 4a) and in assay [4] (Table 4b) was 0.08 µg/mL (≈ 0.137 µM) in each case. The IC50 against hACC2 (Table 2a) and against hACC2 (Table 2b (additional results)) was 10 to 40 nM in each case.
On to `CCOC(=O)c1sc2c(c1C)c(=O)n(C(C)(C)C(=O)NC(C)C)c(=O)n2C[C@H](OCCC#N)c1cc(F)ccc1OC` [Compound I-15, (R)-ethyl 1-(2-(2-cyanoethoxy)-2-(5-fluoro-2-methoxy-phenyl)ethyl)-3-(1-(isopropylamino)-2-methyl-1-oxopropan-2-yl)-5-methyl-2,4-dioxo-1,2,3,4-tetrahydrothieno[2,3-d]pyrimidine-6-carboxylate], for which the IC90 in assay [1] (Table 4a) is 0.08 µg/mL (≈ 0.133 µM); in assay [1] (Table 4b), 0.08 µg/mL (≈ 0.133 µM); in assay [2] (Table 4a), 0.4 µg/mL (≈ 0.664 µM); in assay [2] (Table 4b), 0.4 µg/mL (≈ 0.664 µM); in assay [3] (Table 4a) it was no less than 50 µg/mL; in assay [3] (Table 4b), 10 µg/mL (≈ 16.6 µM). In addition, the IC90 in the assay on Diplodia maydis (Dm) (Table 4a) was 0.08 µg/mL (≈ 0.133 µM); with Diplodia maydis (Dm) (Table 4b), 0.08 µg/mL (≈ 0.133 µM); in the assay with Rhizoctonia solani (Rs) (Table 4a), 0.08 µg/mL (≈ 0.133 µM); with Rhizoctonia solani (Rs) (Table 4b), 0.08 µg/mL (≈ 0.133 µM); in the assay on Septoria tritici (St) (Table 4a) it was no less than 50 µg/mL; with Septoria tritici (St) (Table 4b), 10 µg/mL (≈ 16.6 µM). For the same compound, the IC90 in assay [4] (Table 4a) and in assay [4] (Table 4b) was 0.08 µg/mL (≈ 0.133 µM) in each case. In addition, the results for the IC50 at hACC2 (Table 2a) and against hACC2 (Table 2b (additional results)) were 10 to 40 nM and 3 to 10 nM, respectively.
Take `CCOC(=O)c1sc2c(c1C)c(=O)n(C(C)(C)C(N)=O)c(=O)n2C[C@H](OCCC#N)c1cc(F)ccc1OC` [Compound I-14, (R)-ethyl 3-(1-amino-2-methyl-1-oxopropan-2-yl)-1-(2-(2-cyanoethoxy)-2-(5-fluoro-2-methoxyphenyl)ethyl)-5-methyl-2,4-dioxo-1,2,3,4-tetrahydro-thieno[2,3-d]pyrimidine-6-carboxylate]: the IC90 in assay [1] (Table 4a) was no less than 50 µg/mL; in assay [1] (Table 4b), no less than 50 µg/mL; in assay [2] (Table 4a), no less than 50 µg/mL; in assay [2] (Table 4b) it was 10 µg/mL (≈ 17.8 µM); in assay [3] (Table 4a) it was no less than 50 µg/mL; in assay [3] (Table 4b) it was no less than 50 µg/mL. In addition, the IC90 in the assay with Diplodia maydis (Dm) (Table 4a) was no less than 50 µg/mL; in the assay on Diplodia maydis (Dm) (Table 4b), no less than 50 µg/mL; in the assay on Rhizoctonia solani (Rs) (Table 4a) it was no less than 50 µg/mL; with Rhizoctonia solani (Rs) (Table 4b) it was 10 µg/mL (≈ 17.8 µM); in the assay on Septoria tritici (St) (Table 4a), no less than 50 µg/mL; with Septoria tritici (St) (Table 4b) it was no less than 50 µg/mL. In addition, the IC90 in assay [4] (Table 4a) and in assay [4] (Table 4b) was 0.4 µg/mL (≈ 0.714 µM) each time. Besides, the IC50 on hACC2 (Table 2a) lay within 3 to 10 nM.
With `CCOC(=O)c1sc2c(c1C)c(=O)n(C(C)(C)C(=O)N1CCCC1)c(=O)n2C[C@H](OCCO)c1cc(F)ccc1OC` [Compound I-12, (R)-ethyl 1-(2-(5-fluoro-2-methoxyphenyl)-2-(2-hydroxy-ethoxy)ethyl)-5-methyl-3-(2-methyl-1-oxo-1-(pyrrolidin-1-yl)propan-2-yl)-2,4-dioxo-1,2,3,4-tetrahydrothieno[2,3-d]pyrimidine-6-carboxylate], the IC90 is 0.4 µg/mL (≈ 0.66 µM) in assay [1] (Table 4a); 0.4 µg/mL (≈ 0.66 µM) in assay [1] (Table 4b); 2 µg/mL (≈ 3.3 µM) in assay [2] (Table 4a); 2 µg/mL (≈ 3.3 µM) in assay [2] (Table 4b); no less than 50 µg/mL in assay [3] (Table 4a); no less than 50 µg/mL in assay [3] (Table 4b). Also, the IC90 in the assay on Diplodia maydis (Dm) (Table 4a) is 2 µg/mL (≈ 3.3 µM); in the assay with Diplodia maydis (Dm) (Table 4b) it was 2 µg/mL (≈ 3.3 µM); in the assay on Rhizoctonia solani (Rs) (Table 4a) it was 0.4 µg/mL (≈ 0.66 µM); in the assay on Rhizoctonia solani (Rs) (Table 4b) it was 0.4 µg/mL (≈ 0.66 µM); with Septoria tritici (St) (Table 4a), no less than 50 µg/mL; in the assay with Septoria tritici (St) (Table 4b), no less than 50 µg/mL. Besides, the IC90 in assay [4] (Table 4a) and in assay [4] (Table 4b) was 0.4 µg/mL (≈ 0.66 µM) throughout. Also, the IC50 against hACC2 (Table 2a) and at hACC2 (Table 2b (additional results)) was 3 to 10 nM throughout.

Source of the values: patent US11098055B2, “Ester ACC inhibitors and uses thereof” (Gilead Apollo, LLC, priority 2015, dated 2021).
